The source of these data is PubChem BioAssay (NCI).

Some test systems named below: MOLT-4 leukemia; M19-MEL melanoma; HL-60(TB) leukemia; LXFL 529 NSCLC; SF-295 CNS; SNB-19 CNS; DLD-1 colon; NCI-H460 lung; HCT-15 colon; HOP-92 NSCLC; MDA-MB-231 breast.
Common to all, as to assay: NCI-60 cell line screen, 48 h

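Compound exposure: 48 hours, 5 concentrations, 96-well plates. GI50 = concentration required for 50% inhibition of growth. TGI is the concentration that stops growth completely.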 Bounds are passed on as bounds.

On to `CC1=CCC2(C#N)CCC1C2=O` (stereo not drawn), for which the TGI with MOLT-4 leukemia, with M19-MEL melanoma, with HL-60(TB) leukemia, with LXFL 529 NSCLC, in the assay on SF-295 CNS and in the assay with SNB-19 CNS was above 100 µM throughout. For the same molecule, the TGI in the assay on DLD-1 colon, in the assay on NCI-H460 lung and in the assay on HCT-15 colon was above 100 µM throughout.
On to `CC1CC2C3CC(F)C4=CC(=O)C=CC4(C)C3(F)C(O)CC2(C)C1(O)C(=O)CO` (stereo not drawn), for which the TGI in the assay on MOLT-4 leukemia, in the assay on M19-MEL melanoma, in the assay with HL-60(TB) leukemia, in the assay with HOP-92 NSCLC, in the assay on SF-295 CNS and in the assay with SNB-19 CNS was above 100 µM in each case. Besides, the TGI with DLD-1 colon, in the assay with NCI-H460 lung and with HCT-15 colon was above 100 µM throughout.
For the molecule `Nc1cc(C(F)F)c(-c2nc(N3[C@@H]4CC[C@H]3COC4)nc(N3[C@@H]4CC[C@H]3COC4)n2)cn1`, the GI50 in the assay on MOLT-4 leukemia is 0.796 µM; in the assay on HL-60(TB) leukemia, 2.29 µM; with HOP-92 NSCLC, 0.0688 µM; in the assay on MDA-MB-231 breast it was 0.406 µM; with SF-295 CNS it was 0.19 µM; with SNB-19 CNS it was 0.706 µM. The results for the GI50 in the assay on NCI-H460 lung and with HCT-15 colon were 0.306 µM and 0.345 µM, respectively. Also, the TGI was above 100 µM in the assay with MOLT-4 leukemia; above 100 µM in the assay with HL-60(TB) leukemia; 0.722 µM in the assay with HOP-92 NSCLC; above 93.3 µM in the assay on MDA-MB-231 breast; 1.78 µM in the assay with SF-295 CNS; above 100 µM in the assay with SNB-19 CNS. The TGI with NCI-H460 lung and with HCT-15 colon was above 100 µM throughout.
For `C/C=C(/C)C(=O)OC1C=C(CO)C(=O)C(OC(=O)/C(C)=C\C)C1C(C)C` (stereo not drawn), the GI50 in the assay with MOLT-4 leukemia was 0.335 µM; with HL-60(TB) leukemia it was 0.403 µM; in the assay on HOP-92 NSCLC, 0.528 µM; in the assay on MDA-MB-231 breast it was 0.751 µM; in the assay on SF-295 CNS, 1.82 µM; in the assay on SNB-19 CNS, 1.46 µM. Moreover, the GI50 in the assay with NCI-H460 lung is 1.25 µM; in the assay with HCT-15 colon, 0.46 µM. For the same molecule, the TGI with MOLT-4 leukemia is 3.89 µM; in the assay on HL-60(TB) leukemia, 3.86 µM; in the assay on HOP-92 NSCLC it was 1.15 µM; with MDA-MB-231 breast, 1.9 µM; in the assay with SF-295 CNS, 3.35 µM; with SNB-19 CNS, 2.85 µM. The TGI came out at 2.94 µM with NCI-H460 lung and 1.86 µM in the assay with HCT-15 colon.
Take `NC1=C(c2nc(-c3cc4ccccc4oc3=O)cs2)C(c2ccco2)c2c(c3ccccc3oc2=O)O1` (stereo not drawn): the GI50 in the assay with MOLT-4 leukemia is 119 µg/mL; in the assay on HL-60(TB) leukemia, above 150 µg/mL; in the assay on HOP-92 NSCLC, 53.3 µg/mL; with MDA-MB-231 breast it was 75.7 µg/mL; with SF-295 CNS, 130 µg/mL; with SNB-19 CNS, 53.1 µg/mL. Moreover, the GI50 with NCI-H460 lung and in the assay with HCT-15 colon was above 150 µg/mL throughout. Besides, the TGI with MOLT-4 leukemia, in the assay with HL-60(TB) leukemia, in the assay on HOP-92 NSCLC, in the assay with MDA-MB-231 breast, in the assay on SF-295 CNS and in the assay with SNB-19 CNS was above 150 µg/mL throughout. Also, the TGI with NCI-H460 lung and with HCT-15 colon was above 150 µg/mL throughout.
Consider `Cc1ccc(NC2=C(Cl)C(=O)c3nc(C)ccc3C2=O)cc1`, for which the GI50 was 2.52 µM in the assay with MOLT-4 leukemia; 1.98 µM with HL-60(TB) leukemia; 1.4 µM in the assay on HOP-92 NSCLC; 1.41 µM with MDA-MB-231 breast; 1.55 µM with SF-295 CNS; 1.32 µM in the assay on SNB-19 CNS. Further, the GI50 was 1.69 µM in the assay on NCI-H460 lung and 0.694 µM in the assay with HCT-15 colon. For the same molecule, the TGI is above 100 µM with MOLT-4 leukemia; 4.96 µM in the assay with HL-60(TB) leukemia; 2.93 µM in the assay with HOP-92 NSCLC; 2.96 µM in the assay on MDA-MB-231 breast; 2.95 µM in the assay on SF-295 CNS; 3.01 µM in the assay on SNB-19 CNS. Further, the TGI with NCI-H460 lung came to 4.57 µM; in the assay on HCT-15 colon, 2.32 µM.
`COc1ccc2[nH]cc(/C=C3\C(=O)Nc4ccccc43)c2c1`: the GI50 is 2.33 µM in the assay with MOLT-4 leukemia; 1.78 µM with HL-60(TB) leukemia; 3.84 µM in the assay with HOP-92 NSCLC; 3.95 µM in the assay on MDA-MB-231 breast; 10.8 µM with SF-295 CNS; 8.7 µM with SNB-19 CNS. Also, the GI50 was 4.09 µM with NCI-H460 lung and 3.86 µM with HCT-15 colon. For the same molecule, the TGI with MOLT-4 leukemia is 7.4 µM; in the assay on HL-60(TB) leukemia, 4.26 µM; with HOP-92 NSCLC, 13.6 µM; in the assay with MDA-MB-231 breast, 21.9 µM; in the assay with SF-295 CNS, 30 µM; in the assay on SNB-19 CNS, above 100 µM. For the same molecule, the TGI is 18.7 µM in the assay with NCI-H460 lung and 17.5 µM in the assay on HCT-15 colon.
Regarding `O=C(O)[C@@H]1C[C@@H](O)CN1`, the TGI in the assay on MOLT-4 leukemia, in the assay on HL-60(TB) leukemia, in the assay on HOP-92 NSCLC, in the assay with MDA-MB-231 breast, in the assay with SF-295 CNS and with SNB-19 CNS was above 100 µM each time. In addition, the TGI in the assay on NCI-H460 lung and in the assay on HCT-15 colon was above 100 µM throughout.
Regarding `CCOC(=O)C(=Cc1ccc(Br)cc1)C(=O)OCC`, the GI50 was 2.94 µM in the assay on MOLT-4 leukemia; 1.63 µM in the assay on HL-60(TB) leukemia; 1.45 µM with HOP-92 NSCLC; 2.08 µM with MDA-MB-231 breast; 2.74 µM with SF-295 CNS; 2.47 µM with SNB-19 CNS. Moreover, the results for the GI50 with NCI-H460 lung and in the assay on HCT-15 colon were 2.37 µM and 1.44 µM, respectively. For the same molecule, the TGI in the assay on MOLT-4 leukemia was found to be 20.2 µM; with HL-60(TB) leukemia, 7.53 µM; in the assay on HOP-92 NSCLC, 4.8 µM; in the assay with MDA-MB-231 breast it was 5.37 µM; with SF-295 CNS it was 9.36 µM; in the assay on SNB-19 CNS, 7.55 µM. Moreover, the TGI in the assay on NCI-H460 lung worked out at 5.73 µM; in the assay with HCT-15 colon it was 3.5 µM.
For `O=C(N/N=C/c1cc2ccccc2c2ccccc12)c1cc(O)c(O)c(O)c1`, the GI50 in the assay with MOLT-4 leukemia is 3.8 µM; in the assay with HL-60(TB) leukemia, 3.54 µM; in the assay with HOP-92 NSCLC, 2.1 µM; in the assay on MDA-MB-231 breast, 2.7 µM; in the assay with SF-295 CNS, 14.9 µM; with SNB-19 CNS, 3.6 µM. Further, the GI50 with NCI-H460 lung is 3.8 µM; with HCT-15 colon, 3.22 µM. The TGI in the assay on MOLT-4 leukemia came out at 18.2 µM; in the assay with HL-60(TB) leukemia it was 15.2 µM; in the assay on HOP-92 NSCLC, 7.19 µM; with MDA-MB-231 breast it was 10.1 µM; in the assay with SF-295 CNS, 32.1 µM; in the assay on SNB-19 CNS, 18.7 µM. For the same molecule, the TGI in the assay on NCI-H460 lung is 18 µM; in the assay on HCT-15 colon, 25.4 µM.
